Assay [1] has as its system human glioblastoma cells U87MG. The experiment in a line: Xenograft tumor model, U87MG. The conditions noted are these: oral gavage. Type of assay: in vivo, mouse. On the procedure:
Expand human glioblastoma cells U87MG and human renal carcinoma cells 786-O, in culture, harvest and inject subcutaneously onto the rear flank of athymic nude mice. Expand human non-small cell lung cancer cells NCI-H1975 in culture, harvest and inject subcutaneously onto the rear flank of CD-1 nu/nu mice. Prepare test compound in an appropriate vehicle and administer by oral gavage when tumors are established (7-21 days after implant). Tumor response is determined by tumor volume measurement performed twice a week during the course of treatment. Body weight is taken as a general measurement of toxicity.

The test system of assay [2] is AKT1(pS473). The experiment in a line: AlphaScreen SureFire p-AKT (Ser473) in U87MG cells. Type of assay: cell-based. The conditions noted are these: Homo sapiens, U-87 MG, 1 h, n = 4, read-out: AKT1(pS473) Absolute IC50. On the procedure:
This homogeneous assay format uses immuno-sandwich capture of the phosphorylated analyte and then detection with antibody-coated Alphascreen beads to generate an amplified signal.
Maintain U87MG cells in U87MG growth medium consisting of DMEM (GIBCO 11965-092) supplemented with 10% fetal bovine serum (FBS, GIBCO, 10091-141), 1% nonessential amino acids (GIBCO, 11140-050) and 1% sodium pyruvate (GIBCO, 11360-070). Harvest cells using standard cell culture procedures and then count using Vi-Cell. Plate 100 μL of U87MG cells in growth medium (50,000 cells/well) into Costar #3596 96 well plates and incubate overnight at 37° C., 5% CO2.
Incubate for one h at 37° C., then remove the medium and add 50 μL of 1× SureFire Lysis Buffer (TGR Biosciences SureFire® Kit component) to each well and incubate at room temperature for 10 min with gentle shaking Transfer 6 μL lysate and 10 μL reaction mixture (60 parts reaction buffer/10 parts activation buffer/1 part each of donor and acceptor beads, Perkin Elmer, 6760617R) to a 384 well proxiplate (Perkin Elmer, 6006280) for the p-p70S6 kinase (Thr389) and p-AKT(Ser473) assays. Seal the plate and incubate at RT for 4 h. […] Read the plates on a Perkin Elmer EnVision equipped with a TurboModule using standard AlphaScreen® settings (Ex680 nm and Em520-620 nm). […]

The subject of assay [3] is CXF 1783 human tumor xenograft cells. The experiment in a line: Oncotest tumor clonogenic assay, CXF 1783. The assay is classed as cell-based. The conditions noted are these: colony formation, Colon CXF 1783, colon carcinoma, wd, read-out: Absolute IC50.
The subject of assay [4] is H1975. The assay can be described thus: Cell proliferation assay (CellTiter-Glo), H1975. Type of assay: cell-based. The settings on record: Homo sapiens, NCI-H1975, 72 h. On the procedure: Plate cells in a 96-well plate at 2000 cells/well in 100 μL of cell specific medium (for U87MG use DMEM, 10% FBS, 25 mM 4-(2-hydroxyethyl)-1-piperazineethanesulfonic acid (HEPES), 1.0 mM sodium pyruvate, and 0.1 mM Non Essential Amino Acids (ATCC Cat.#30-2002); for HT1080 use Eagle's MEM, 10% FBS (ATCC Cat.#30-2003); for H1975, A2780, SJSA-1 and 786-O use RPMI 1640, 10% FBS (ATCC Cat.#30-2001); for A204 use McCoy's 5A, 10% FBS (ATCC Cat.#30-2007) except in column 1 use medium only as the blank control. Incubate the plates overnight at 37° C. and 5% CO2. On the next day, prepare compound stocks at 1 mM in DMSO and serially dilute in DMSO in a 96-well round bottom polypropylene plate. Assay compounds at 10 concentrations in duplicate, 4 compounds per plate.
Transfer 4 μL of the DMSO serial dilutions to a 96 well plate and add 196 μL of culture medium to create a 10× stock for dosing. Gently transfer 11 μL of each dosing stock to the corresponding well of the cell plate resulting in a 0.2% DMSO concentration and a 111 μL final volume. […]
Prepared the CellTiter-Glo reagent (Promega, Cat: G7571) and add 100 µL to each well after the incubation is complete, homogenize the cells by mixing on an orbital shaker for 2 min and then incubate at RT for 10 min to allow the luminescent signal to stabilize. Record the luminescent raw data with a Wallac Victor V plate reader. […]

Structures are written as SMILES.

What is called IC50 is the concentration that inhibits the measured activity by half. Consider `CO[C@@H](C)Cn1c(=O)n(C)c2cnc3ccc(-c4cncc(C(C)(C)O)c4)cc3c21` [Example 1, 8-[5-(1-Hydroxy-1-methylethyl)pyridin-3-yl]-1-[(2S)-2-methoxypropyl]-3-methyl-1,3-dihydro-2H-imidazo[4,5-c]quinolin-2-one], for which the “% TGI” value is reported as 38.6% in assay [1] (3 mg/kg BID), 57.7% in assay [1] (6 mg/kg BID), 86.1% in assay [1] (10 mg/kg BID) and 53.4% in assay [1] (12 mg/kg QD). Further, the IC50 in assay [2] stood at 94.2 nM; in assay [3], 29 nM; in assay [4], 102 nM.
